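Following 48 hours of exposure in 96-well plates, responses at five concentrations were used to interpolate endpoints linearly. The concentration for 50% growth inhibition is given as GI50.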 Calls of active or inactive are those of the source. Cut-off read from the data, not from the text of the source: active = GI50 up to about 1.1 µM and inactive = higher.
Legend:
Experiment in all cases: inhibition of tumour cell growth, NCI panel, 48 h
[1] = test system: SF-268
[2] = test system: SK-MEL-28
[3] = test system: MDA-MB-231
[4] = test system: SF-539
[5] = test system: K562
[6] = test system: Malme-3M
[7] = test system: EKVX
[8] = test system: HOP-62
[9] = test system: CAKI-1
[10] = test system: ACHN
[11] = test system: UACC-257
[12] = test system: CCRF-CEM
[13] = test system: HL-60
[14] = test system: SK-OV-3
[15] = test system: OVCAR-4
[16] = test system: NCI-H522
[17] = test system: NCI/ADR-RES
[18] = test system: TK-10
[19] = test system: MDA-MB-435
[20] = test system: SK-MEL-5
[21] = test system: HOP-92
[22] = test system: HCT-15
[23] = test system: OVCAR-8
[24] = test system: SK-MEL-2
[25] = test system: SF-295
[26] = test system: KM12
[27] = test system: RPMI-8226
[28] = test system: U-251
[29] = test system: HT-29
[30] = test system: LOX IMVI
[31] = test system: SNB-75
[32] = test system: BT-549
[33] = test system: MDA-N
[34] = test system: MOLT-4
[35] = test system: HCC 2998
[36] = test system: MCF7
[37] = test system: OVCAR-5
[38] = test system: SW-620
[39] = test system: Hs-578T
[40] = test system: A498
[41] = test system: IGROV-1
[42] = test system: NCI-H226
[43] = test system: UACC-62
[44] = test system: HCT-116
[45] = test system: A549
[46] = test system: NCI-H460
[47] = test system: SNB-19
[48] = test system: COLO 205
[49] = test system: SN12C
[50] = test system: M14
[51] = test system: RXF 393
[52] = test system: 786-0
[53] = test system: PC-3
[54] = test system: OVCAR-3
[55] = test system: UO-31
[56] = test system: NCI-H23

SMILES: N#Cc1c(-c2ccccc2)c(C#N)c(=O)n(NS(=O)(=O)c2ccccc2)c1O
- GI50 [1]: > 100 µM (inactive)
- GI50 [2]: > 100 µM (inactive)
- GI50 [3]: > 100 µM (inactive)
- GI50 [4]: > 100 µM (inactive)
- GI50 [5]: > 100 µM (inactive)
- GI50 [6]: > 100 µM (inactive)
- GI50 [7]: > 100 µM (inactive)
- GI50 [8]: > 100 µM (inactive)
- GI50 [9]: > 100 µM (inactive)
- GI50 [10]: > 100 µM (inactive)
- GI50 [11]: > 100 µM (inactive)
- GI50 [12]: > 100 µM (inactive)
- GI50 [13]: > 100 µM (inactive)
- GI50 [14]: > 100 µM (inactive)
- GI50 [15]: > 100 µM (inactive)
- GI50 [16]: > 100 µM (inactive)
- GI50 [17]: > 100 µM (inactive)
- GI50 [18]: > 100 µM (inactive)
- GI50 [19]: > 100 µM (inactive)
- GI50 [20]: > 100 µM (inactive)
- GI50 [21]: > 100 µM (inactive)
- GI50 [22]: > 100 µM
- GI50 [23]: > 100 µM (inactive)
- GI50 [24]: > 100 µM (inactive)
- GI50 [25]: > 100 µM (inactive)
- GI50 [26]: > 100 µM (inactive)
- GI50 [27]: > 100 µM (inactive)
- GI50 [28]: > 100 µM (inactive)
- GI50 [29]: > 100 µM (inactive)
- GI50 [30]: > 100 µM (inactive)
- GI50 [31]: > 100 µM (inactive)
- GI50 [32]: > 100 µM (inactive)
- GI50 [33]: > 100 µM (inactive)
- GI50 [34]: > 100 µM (inactive)
- GI50 [35]: > 100 µM (inactive)
- GI50 [36]: > 100 µM (inactive)
- GI50 [37]: > 100 µM (inactive)
- GI50 [38]: > 100 µM (inactive)
- GI50 [39]: > 100 µM (inactive)
- GI50 [40]: > 100 µM (inactive)
- GI50 [41]: > 100 µM (inactive)
- GI50 [42]: > 100 µM (inactive)
- GI50 [43]: > 100 µM (inactive)
- GI50 [44]: > 100 µM (inactive)
- GI50 [45]: > 100 µM (inactive)
- GI50 [46]: > 100 µM (inactive)
- GI50 [47]: > 100 µM (inactive)
- GI50 [48]: > 100 µM (inactive)
- GI50 [49]: > 100 µM (inactive)
- GI50 [50]: > 100 µM (inactive)
- GI50 [51]: > 100 µM (inactive)
- GI50 [52]: > 100 µM (inactive)
- GI50 [53]: > 100 µM (inactive)

SMILES: C/C=C1\CNC1C(=O)O (stereo not given)
- GI50 [1]: > 100 µM (inactive)
- GI50 [2]: > 100 µM (inactive)
- GI50 [4]: > 100 µM (inactive)
- GI50 [5]: > 100 µM (inactive)
- GI50 [6]: > 100 µM (inactive)
- GI50 [7]: > 100 µM (inactive)
- GI50 [54]: > 100 µM (inactive)
- GI50 [8]: > 100 µM (inactive)
- GI50 [9]: > 100 µM (inactive)
- GI50 [10]: > 100 µM (inactive)
- GI50 [11]: > 100 µM (inactive)
- GI50 [12]: > 100 µM (inactive)
- GI50 [13]: > 100 µM (inactive)
- GI50 [55]: > 100 µM (inactive)
- GI50 [14]: > 100 µM (inactive)
- GI50 [15]: > 100 µM (inactive)
- GI50 [17]: > 100 µM (inactive)
- GI50 [18]: > 100 µM (inactive)
- GI50 [19]: > 100 µM (inactive)
- GI50 [20]: > 100 µM (inactive)
- GI50 [21]: > 100 µM (inactive)
- GI50 [22]: > 100 µM
- GI50 [23]: > 100 µM (inactive)
- GI50 [24]: > 100 µM (inactive)
- GI50 [25]: > 100 µM (inactive)
- GI50 [56]: > 100 µM (inactive)
- GI50 [27]: > 100 µM (inactive)
- GI50 [29]: > 100 µM (inactive)
- GI50 [30]: > 100 µM (inactive)
- GI50 [32]: > 100 µM (inactive)
- GI50 [33]: > 100 µM (inactive)
- GI50 [35]: > 100 µM (inactive)
- GI50 [36]: > 100 µM (inactive)
- GI50 [37]: > 100 µM (inactive)
- GI50 [38]: > 100 µM (inactive)
- GI50 [39]: > 100 µM (inactive)
- GI50 [40]: > 100 µM (inactive)
- GI50 [41]: > 100 µM (inactive)
- GI50 [43]: > 100 µM (inactive)
- GI50 [44]: > 100 µM (inactive)
- GI50 [45]: > 100 µM (inactive)
- GI50 [46]: > 100 µM (inactive)
- GI50 [47]: > 100 µM (inactive)
- GI50 [48]: > 100 µM (inactive)
- GI50 [49]: > 100 µM (inactive)
- GI50 [52]: > 100 µM (inactive)
- GI50 [53]: > 100 µM (inactive)

From ChEMBL document CHEMBL1201862, “PubChem BioAssay data set” (2004)
